The results in this text go back to publication PMC6271228, “Diethyl 2-(Phenylcarbamoyl)phenyl Phosphorothioates: Synthesis, Antimycobacterial Activity and Cholinesterase Inhibition” (Molecules, 2014).

Assay [1] has as its system M. kansasii 6509/96 (clinically isolated). Briefly: microbe, parasite or virus in culture. In kind it is cell-based. The settings on record: Mycobacterium kansasii, 37 °C.
For another assay, the target named is T1, AChE from electric eel (Electrophorus electricus, UniProt O42275).
T1 construct: Acetylcholinesterase was obtained from electric eel (Electrophorus electricus L.); from tissue; host or cells: electric eel (Electrophorus electricus L.)
T1 sequence (O42275 24-633): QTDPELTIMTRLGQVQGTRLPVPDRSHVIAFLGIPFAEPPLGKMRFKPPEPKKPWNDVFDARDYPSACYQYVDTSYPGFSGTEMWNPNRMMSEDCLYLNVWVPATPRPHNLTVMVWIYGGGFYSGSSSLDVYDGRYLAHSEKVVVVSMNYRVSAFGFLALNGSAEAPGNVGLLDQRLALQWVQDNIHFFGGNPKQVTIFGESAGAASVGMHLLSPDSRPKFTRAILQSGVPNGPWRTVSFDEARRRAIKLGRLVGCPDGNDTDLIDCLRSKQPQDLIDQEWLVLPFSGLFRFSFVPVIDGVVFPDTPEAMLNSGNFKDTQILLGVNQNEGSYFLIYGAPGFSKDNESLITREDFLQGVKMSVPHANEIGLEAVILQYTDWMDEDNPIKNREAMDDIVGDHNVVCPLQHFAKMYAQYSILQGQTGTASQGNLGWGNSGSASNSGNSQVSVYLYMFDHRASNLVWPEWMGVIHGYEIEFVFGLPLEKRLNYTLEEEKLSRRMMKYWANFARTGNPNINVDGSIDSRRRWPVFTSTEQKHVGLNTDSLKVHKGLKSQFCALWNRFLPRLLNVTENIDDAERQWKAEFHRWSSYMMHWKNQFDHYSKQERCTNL
Description: AChE inhibition, modified Ellman's method. Format: biochemical, Electrophorus electricus L. The text has this: (§1) The ability of the tested compounds to inhibit AChE from electric eel (Electrophorus electricus L.) and BChE from equine serum was screened in vitro using modified Ellman’s method for the evaluation of cholinesterase activity. […] […]. These two standards were chosen due to their different structures. […]. The choice of these drugs with different mechanism of action can provide relevant results. All tested compounds expressed a good inhibitory activity with IC50s in low micromolar values.
(§2) The IC50 values were determined using the spectrophotometric Ellman’s method, which is a simple, rapid and direct method to determine the SH and -S-S- group content in proteins. This method is widely used for cholinesterase activity evaluation and screening of the efficiency of cholinesterase inhibitors. Cholinesterase activity is measured indirectly by quantifying the concentration of 5-thio-2-nitrobenzoic acid (TNB) ion formed in the reaction between the thiol reagent 5,5'-dithiobis-2-nitrobenzoic acid (DTNB) and thiocholine, a product of substrate hydrolysis by cholinesterase (i.e., acetylthiocholine, ATCh). All the tested compounds were dissolved in dimethyl sulfoxide (concentration 0.01 M) and then diluted in demineralised water (concentration 0.001 M and 0.0001 M). The Ellman’s method is slightly modified according to Zdrazilova et al.. Acetylcholinesterase was obtained from electric eel (Electrophorus electricus L.) and butyrylcholinesterase from equine serum.
(DTNB colorimetry detects thiols as they appear.)

In another assay the test system is M. kansasii My 235/80. Description: microbe, parasite or virus in culture. The settings on record: for MIC: Mycobacterium kansasii, 37 °C. In kind it is cell-based, Mycobacterium kansasii.
In assay [2] the test system is Mycobacterium tuberculosis My 331/88 (H37Rv). Briefly: microbe, parasite or virus in culture. In kind it is cell-based.
In another assay the test system is M. avium My 330/88. Briefly: microbe, parasite or virus in culture. Format: cell-based, Mycobacterium avium. Particulars: Mycobacterium avium, 37 °C.
For another assay, the target named is T2, BChE from equine serum (Equus caballus, UniProt P81908).
T2 construct: butyrylcholinesterase from equine serum; from tissue; host or cells: equine serum
T2 sequence (P81908 whole entry): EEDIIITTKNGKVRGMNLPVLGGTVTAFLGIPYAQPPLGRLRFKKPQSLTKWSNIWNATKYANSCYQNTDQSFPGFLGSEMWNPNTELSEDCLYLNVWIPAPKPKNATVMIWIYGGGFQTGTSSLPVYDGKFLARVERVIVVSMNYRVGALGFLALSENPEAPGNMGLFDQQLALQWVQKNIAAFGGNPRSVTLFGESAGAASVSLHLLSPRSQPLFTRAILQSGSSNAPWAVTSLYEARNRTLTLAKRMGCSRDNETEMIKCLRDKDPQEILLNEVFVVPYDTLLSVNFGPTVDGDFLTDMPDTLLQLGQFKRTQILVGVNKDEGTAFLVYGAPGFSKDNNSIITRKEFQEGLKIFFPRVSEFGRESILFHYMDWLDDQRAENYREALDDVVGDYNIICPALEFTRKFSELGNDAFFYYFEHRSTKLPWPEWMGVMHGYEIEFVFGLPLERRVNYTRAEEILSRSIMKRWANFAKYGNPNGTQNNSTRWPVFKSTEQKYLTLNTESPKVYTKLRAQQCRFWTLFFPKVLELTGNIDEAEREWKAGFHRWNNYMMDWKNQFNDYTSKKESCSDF
Description: BChE inhibition, modified Ellman's method. Format: biochemical.
Text: as §1, §2

Setting [3] is: 168 h, 7 d, read-out: MIC M. kansasii 6509/96 7 d.
The mark [4] stands for this setting: 336 h, 14 d, read-out: MIC M. kansasii 6509/96 14 d.
Setting [5] is: 504 h, 21 d, read-out: MIC M. kansasii 6509/96 21 d.
[6] abbreviates: MY235/80, 168 h, 7 d, read-out: MIC M. kansasii 235/80 7 d.
Setting [7] is: MY235/80, 336 h, 14 d, read-out: MIC M. kansasii 235/80 14 d.
The mark [8] stands for this setting: MY235/80, 504 h, 21 d, read-out: MIC M. kansasii 235/80 21 d.
Setting [9] is: 336 h, 14 d, 37 °C, read-out: MIC Mtb 331/88 (H37Rv) 14 d.
Where [10] appears, read: 504 h, 21 d, 37 °C, read-out: MIC Mtb 331/88 (H37Rv) 21 d.
The mark [11] stands for this setting: MY330/88, 336 h, 14 d, read-out: MIC M. avium 330/88 14 d.
Setting [12] is: MY330/88, 504 h, 21 d, read-out: MIC M. avium 330/88 21 d.

≈ marks a conversion by molar mass, not a printed value. Like-named read-outs stand apart in the source and are kept apart here.

As for `CCOP(=S)(OCC)Oc1ccc(Cl)cc1C(=O)Nc1ccc(C(F)(F)F)cc1` [1r, O-(4-Chloro-2-{[4-(trifluoromethyl)phenyl]carbamoyl}phenyl) O,O-diethyl phosphorothioate], the MIC stood at 62.5 µM (≈ 29.2 µg/mL) in assay [1] (setting [3]); 125 µM (≈ 58.5 µg/mL) in assay [1] (setting [4]); 250 µM (≈ 117 µg/mL) in assay [1] (setting [5]); 62.5 µM (≈ 29.2 µg/mL) in the assay on M. kansasii My 235/80 (setting [6]); 125 µM (≈ 58.5 µg/mL) in the assay on M. kansasii My 235/80 (setting [7]); 250 µM (≈ 117 µg/mL) with M. kansasii My 235/80 (setting [8]). Moreover, the MIC in assay [2] (setting [9]) came to 8 µM (≈ 3.74 µg/mL); in assay [2] (setting [10]) it was 8 µM (≈ 3.74 µg/mL); in assay [2] (read-out: MIC against Mtb), 8 µM (≈ 3.74 µg/mL); with M. avium My 330/88 (setting [11]) it was 500 µM (≈ 234 µg/mL); in the assay on M. avium My 330/88 (setting [12]) it was 500 µM (≈ 234 µg/mL). For the same compound, the IC50 (commonly the concentration that inhibits the measured activity by half) against AChE from electric eel came to 9.7 ± 0.18 µM; on BChE from equine serum, 15.6 ± 0.7 µM.

On to `CCOP(=S)(OCC)Oc1ccc(Br)cc1C(=O)Nc1ccc(Cl)c(Cl)c1` [1c, O-{4-Bromo-2-[(3,4-dichlorophenyl)carbamoyl]phenyl} O,O-diethyl phosphorothioate], for which the MIC in assay [1] (setting [3]) was 62.5 µM (≈ 32.1 µg/mL); in assay [1] (setting [4]) it was 125 µM (≈ 64.1 µg/mL); in assay [1] (setting [5]), 125 µM (≈ 64.1 µg/mL); with M. kansasii My 235/80 (setting [6]), 62.5 µM (≈ 32.1 µg/mL); with M. kansasii My 235/80 (setting [7]), 250 µM (≈ 128 µg/mL); with M. kansasii My 235/80 (setting [8]) it was 500 µM (≈ 257 µg/mL). In addition, the MIC was found to be 4 µM (≈ 2.05 µg/mL) in assay [2] (setting [9]); 4 µM (≈ 2.05 µg/mL) in assay [2] (setting [10]); 4 µM (≈ 2.05 µg/mL) in assay [2] (read-out: MIC against Mtb); 500 µM (≈ 257 µg/mL) in the assay with M. avium My 330/88 (setting [11]); 500 µM (≈ 257 µg/mL) with M. avium My 330/88 (setting [12]). The IC50 against AChE from electric eel amounted to 14 ± 0.1 µM; against BChE from equine serum it was 18.8 ± 0.7 µM.

In the case of `NNC(=O)c1ccncc1` [INH, isoniazid, reference compound], the MIC in assay [1] (setting [3]) was 2 to 4 µM (≈ 0.274 to 0.549 µg/mL); in assay [1] (setting [4]) it was 4 µM (≈ 0.549 µg/mL); in assay [1] (setting [5]), 4 to 8 µM (≈ 0.549 to 1.1 µg/mL); in the assay with M. kansasii My 235/80 (setting [6]) it was over 250 µM; in the assay with M. kansasii My 235/80 (setting [7]), over 250 µM; in the assay on M. kansasii My 235/80 (setting [8]), over 250 µM. The MIC was 0.5 to 1 µM (≈ 0.0686 to 0.137 µg/mL) in assay [2] (setting [9]), 1 µM (≈ 0.137 µg/mL) in assay [2] (setting [10]), over 250 µM with M. avium My 330/88 (setting [11]) and over 250 µM with M. avium My 330/88 (setting [12]).

On to `CCOP(=S)(OCC)Oc1cc(Cl)ccc1C(=O)Nc1cccc(Br)c1` [1v, O-{2-[(3-Bromophenyl)carbamoyl]-5-chlorophenyl} O,O-diethyl phosphorothioate], for which the MIC stood at 32 µM (≈ 15.3 µg/mL) in assay [1] (setting [3]); 125 µM (≈ 59.8 µg/mL) in assay [1] (setting [4]); 250 µM (≈ 120 µg/mL) in assay [1] (setting [5]); 32 µM (≈ 15.3 µg/mL) with M. kansasii My 235/80 (setting [6]); 125 µM (≈ 59.8 µg/mL) with M. kansasii My 235/80 (setting [7]); 250 µM (≈ 120 µg/mL) in the assay with M. kansasii My 235/80 (setting [8]). Also, the MIC in assay [2] (setting [9]) is 32 µM (≈ 15.3 µg/mL); in assay [2] (setting [10]), 32 µM (≈ 15.3 µg/mL); in the assay with M. avium My 330/88 (setting [11]) it was 500 µM (≈ 239 µg/mL); in the assay on M. avium My 330/88 (setting [12]), 500 µM (≈ 239 µg/mL). The figures for the IC50 on AChE from electric eel and at BChE from equine serum were 9.98 ± 0.43 µM and 14.9 ± 1 µM, respectively.

As to `CCOP(=S)(OCC)Oc1ccc(Br)cc1C(=O)Nc1cccc(F)c1` [1f, O-{4-Bromo-2-[(3-fluorophenyl)carbamoyl]phenyl} O,O-diethyl phosphorothioate], the MIC in assay [1] (setting [3]) stood at 62.5 µM (≈ 28.9 µg/mL); in assay [1] (setting [4]), 250 µM (≈ 116 µg/mL); in assay [1] (setting [5]), 250 µM (≈ 116 µg/mL); in the assay on M. kansasii My 235/80 (setting [6]), 62.5 µM (≈ 28.9 µg/mL); in the assay on M. kansasii My 235/80 (setting [7]), 250 µM (≈ 116 µg/mL); in the assay with M. kansasii My 235/80 (setting [8]), 500 µM (≈ 231 µg/mL). For the same compound, the MIC in assay [2] (setting [9]) was determined as 8 µM (≈ 3.7 µg/mL); in assay [2] (setting [10]), 16 µM (≈ 7.4 µg/mL); in the assay with M. avium My 330/88 (setting [11]) it was 250 µM (≈ 116 µg/mL); in the assay with M. avium My 330/88 (setting [12]), 500 µM (≈ 231 µg/mL). The IC50 at AChE from electric eel was determined as 12.7 ± 0.05 µM; against BChE from equine serum it was 12.2 µM.

In the case of `CCOP(=S)(OCC)Oc1cc(Cl)ccc1C(=O)Nc1cccc(C(F)(F)F)c1` [1z, O-(5-Chloro-2-{[3-(trifluoromethyl)phenyl]carbamoyl}phenyl) O,O-diethyl phosphorothioate], the MIC in assay [1] (setting [3]) is 62.5 µM (≈ 29.2 µg/mL); in assay [1] (setting [4]), 125 µM (≈ 58.5 µg/mL); in assay [1] (setting [5]), 125 µM (≈ 58.5 µg/mL); in the assay with M. kansasii My 235/80 (setting [6]) it was 32 µM (≈ 15 µg/mL); with M. kansasii My 235/80 (setting [7]) it was 125 µM (≈ 58.5 µg/mL); in the assay on M. kansasii My 235/80 (setting [8]) it was 250 µM (≈ 117 µg/mL). For the same compound, the MIC was determined as 32 µM (≈ 15 µg/mL) in assay [2] (setting [9]), 62.5 µM (≈ 29.2 µg/mL) in assay [2] (setting [10]), 500 µM (≈ 234 µg/mL) in the assay with M. avium My 330/88 (setting [11]) and 500 µM (≈ 234 µg/mL) in the assay with M. avium My 330/88 (setting [12]). Besides, the results for the IC50 on AChE from electric eel and against BChE from equine serum were 11.4 ± 0.3 µM and 15 µM, respectively. Also, in the assay with M. kansasii My 235/80 (all time points), the “MICs for M. kansasii 235/80” value is on record as at most 250 µM.
